Data on one compound can be found in patent US20050143453A1, “Selective preventing and therapeutic agents for progressive lesion after organic damage” (priority 2000, published 2005).

Read-outs that look alike come from different tables or passages of the source.

In assay [1] the test system is obstruction-released kidney of male SD rats. As to the kind of experiment: Obstruction release model after complete obstruction of unilateral ureter for 14 days (UUO/Release, Test Example 3). In kind it is in vivo, rat. Also noted: key to Suppressive Effect to Glomerular Lesion / Suppressive Effect to Lesion of Tubulointerstitial Tissue: ∘: available; Δ: somewhat available; x: not available. Here is the method:
Obstruction Release Model after Complete Obstruction of Unilateral Ureter for 14 Days
Experimental models were prepared by a method devised and established by Ishibashi (Michio Ishibashi, et al.: The Japanese Journal of Nephrology, 42: 248, 2000) using male SD rats of 8-9 weeks age and about 280 g. Thus, the rat was laparotomized under anesthetization with ether and ureter was ligated with 7-0 Nylon at the height of the margin of lower pole of left kidney to close the abdomen. On the 14th day after obstruction, the obstruction was released and urinary passage was reconstructed using a cuff. Thus, after 14 days, the part of ligated obstructed ureter was resected, a polyethylene tube of 25 gages (manufactured by Nippon Sherwood) was used as a cuff and inserted into and retained at the lumen from the cut end of the lower normal ureter, then the cuff was also retained in the expanded upper ureter and each of them was ligated and fixed by 7-0 Nylon to reconstruct the urinary passage. At the same time, the right kidney at the opposite side was excised. After the release of the obstruction, body weight was measured, blood was collected on the 2nd day, 5th day and 7th day from the release to measure serum creatinine, then the rat was sacrificed under anesthetization and the left obstruction-released kidney was excised. With regard to the excised kidney, there were carried out measurement of weight of the kidney and pathological test for the kidney.
An in vivo biological test was carried out for the γ-lactone derivatives according to the present invention using the above models. With regard to the test compound, bulk powder of the test compound was dissolved in an aseptic physiological saline together with gum arabic and the final concentration of gum arabic was 5%(vol/vol). The concentration of the test compound 30 mg/ml was suspended in 5% gum arabic-saline solution. The preparation was subcutaneously injected at the dose of 30 mg/kg every day throughout the experiment. With regard to the test compound, there were used (9-1), (4-2) and (7-3) as the compounds of group I suppressing the SPFC production by allo-MLC stimulation, i.e., the compounds which selectively suppress the induction of effector macrophage in the presence of allo-MLC while there was used (3-2) as the compound of group II suppressing the SPFC production by LPS stimulation, i.e., the compounds which selectively suppress the induction of effector macrophage in the presence of LPS.
In the Table, “functional classification” of the compound means the above group I, group II and group III. “Compound” means the compound bearing each of the above-mentioned compound numbers. The fact whether glomerular lesion was suppressed was judged by the ameriolation of the lesions such as thickness of wall of Bowman's capsule, hyperplasia of mesangial cells and glomerular sclerosis. The fact whether lesion of tubulointerstitial tissue was suppressed was judged by the ameriolation of the lesions such as thickness of basement membrane of tubules, cellular infiltration and fibrosis of interstitial tissue. In the table, “control” is the result when the same test as above was carried out using 5% gum arabic only which is a solvent.
In order to further confirm whether the preventive and therapeutic effect of the γ-lactone derivatives of the present invention to the target cell damage is selective, (7-3) of the group I and (6-1) of the group II were used as test compounds and they were subcutaneously injected at the dose of 30 mg/kg every day and compared with the control group. With regard to the control group, only 5% gum arabic which is a solvent was used and the same test as above was carried out.

For assay [2], the system named is kidney of chronic puromycin nephrosis rat. Description: Puromycin chronic nephrosis model in rat (CPN, Test Example 4). The format is in vivo. Here is the method: Evaluation Using Puromycin Chronic Nephrosis Model in Rat
Male SD rat of 8 weeks age of about 250 g was used and […] of puromycin were intravenously administered once according to a method of Diamond, et al. (J. R. Diamond, I. Pesek, S. Ruggeri, M. J. Karnovsky: Essential fatty acid deficiency during acute puromycin nephrosis ameliorates late renal injury. Am. J. Physiol, 257: F798˜F807, 1989). There was induced a chronic puromycin nephrosis rat where albuminuria increased from about tenth to twelfth week. After eighth week from administration of puromycin, each of compound (9-1) and compound (6-1) was subcutaneously injected at the dose of 30 mg/kg/day everyday until the 22nd week.
As a functional evaluation of kidney, albumin in urine was measured every week using a kit for the measurement of albumin. On the 22nd week, the rat was killed and anatomized to observe functional and morphological changes of kidney.

Assay [3] has as its system induction of effector macrophage by contact of human PBMC with mitomycin-treated human PBMC (allo-MLC). As to the kind of experiment: SPFC production by allo-MLC stimulation (Test Example 2). In kind it is cell-based.
[4] abbreviates: 30 mg/kg subcutaneously every day, Table 2.
Setting [5] is: Experimental Model of Rat: UUO/Release.
Where [6] appears, read: 30 mg/kg/day subcutaneously from 8th to 22nd week after puromycin.

Take `CCOC(=O)C(=O)CCC(=O)O` [(9-1), ethyl 2-ketoglutarate]: the “selectivity of the suppressive effect on renal lesions” value in assay [1] (30 mg/kg subcutaneously every day) was “selective suppressive effect”. In addition, in assay [1] (setting [4]), the “Rate of Cases where Glomerular Lesion was Suppressed” value is recorded as 0% (0/4), the “Rate of Cases where tubulointerstitial Lesion was Suppressed” value is on record as 100% (4/4), the “Serum Creatinine level (mg/dl) on the 7th Day from Release of Obstruction” value worked out at 2.0 ± 0.2 mg/dL and the “Weight of Kidney (g) on the 7th Day from Release of Obstruction” value was 3.01 ± 0.56 g. For the same compound, in assay [1] (setting [5]), the “Suppressive Effect to Glomerular Lesion” value is “x” and the “Suppressive Effect to Lesion of Tubulointerstitial Tissue” value is given as “∘”. The “suppression of lesion of tubulointerstitial tissues” value in assay [2] (30 mg/kg/day subcutaneously) is listed as “well suppressed”. In assay [2] (setting [6]), the “Rate of Cases where Glomerular Lesion was Suppressed” value is reported as 50% (3/6) and the “Rate of Cases where Lesion of Tubulointerstitial Tissue was Suppressed” value is listed as 83% (5/6). Moreover, the IC50 in assay [3] (Table 5, read-out: Inhibiting Concentration for SPEC Production by allo-MLC Stimulation (μM: IC50)) was found to be 0.01 µM. In assay [3] (human PBMC with mitomycin-treated human PBMC, incubated 6 days, Table 1, read-out: SPFC Production Inhibiting Concentration by all-MLC Stimulation (μM: IC50)), the IC50 is 0.01 µM. In addition, the “Functional Classification” value in assay [3] (selectivity allo-MLC versus LPS stimulation, Table 1) is “Group I”.
